The values that follow come from publication PMC3177607 (Bioorganic & medicinal chemistry letters, 2008).

The target in one assay is T1, M1 (Rattus norvegicus, UniProt P08482).
T1 sequence (P08482 1-460): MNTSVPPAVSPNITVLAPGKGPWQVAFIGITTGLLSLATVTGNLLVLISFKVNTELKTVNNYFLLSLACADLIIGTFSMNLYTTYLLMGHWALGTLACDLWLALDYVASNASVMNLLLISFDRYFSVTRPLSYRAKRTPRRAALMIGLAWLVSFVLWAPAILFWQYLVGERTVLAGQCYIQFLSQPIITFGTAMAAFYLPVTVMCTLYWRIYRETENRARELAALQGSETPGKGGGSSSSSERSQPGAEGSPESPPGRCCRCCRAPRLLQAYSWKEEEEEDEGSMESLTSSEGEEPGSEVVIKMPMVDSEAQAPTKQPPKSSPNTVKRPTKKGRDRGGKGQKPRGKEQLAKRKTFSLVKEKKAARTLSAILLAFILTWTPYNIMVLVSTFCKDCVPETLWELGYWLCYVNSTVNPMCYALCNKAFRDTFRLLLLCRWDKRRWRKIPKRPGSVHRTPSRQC
The experiment in a line: 10 μM single point M1 activation screen. It is filed as cell-based. As to conditions: in triplicate, relative to ACh, CCh and TBPB controls.

A further assay has as its target M3 (Homo sapiens, UniProt P20309). Kind of assay: M3 functional activation. Type of assay: cell-based.
For a further assay, the target named is T2, M2 (Homo sapiens, UniProt P08172).
T2 sequence (P08172 1-466): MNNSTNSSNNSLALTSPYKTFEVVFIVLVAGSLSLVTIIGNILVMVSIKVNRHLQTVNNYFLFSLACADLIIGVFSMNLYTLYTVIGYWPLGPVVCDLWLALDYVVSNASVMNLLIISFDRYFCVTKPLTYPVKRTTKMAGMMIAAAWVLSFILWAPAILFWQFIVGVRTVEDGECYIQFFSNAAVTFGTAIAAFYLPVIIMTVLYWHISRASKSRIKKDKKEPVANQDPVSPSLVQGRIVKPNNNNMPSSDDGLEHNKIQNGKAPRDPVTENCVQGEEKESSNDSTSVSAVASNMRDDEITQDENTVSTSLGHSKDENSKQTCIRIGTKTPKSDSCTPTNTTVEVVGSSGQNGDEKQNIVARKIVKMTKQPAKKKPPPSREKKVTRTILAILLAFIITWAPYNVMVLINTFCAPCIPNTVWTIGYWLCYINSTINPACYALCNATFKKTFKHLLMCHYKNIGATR
The experiment in a line: M2 functional activation. It is filed as cell-based.

A further assay has as its target T3, M4 (Homo sapiens, UniProt P08173).
T3 sequence (P08173 1-479): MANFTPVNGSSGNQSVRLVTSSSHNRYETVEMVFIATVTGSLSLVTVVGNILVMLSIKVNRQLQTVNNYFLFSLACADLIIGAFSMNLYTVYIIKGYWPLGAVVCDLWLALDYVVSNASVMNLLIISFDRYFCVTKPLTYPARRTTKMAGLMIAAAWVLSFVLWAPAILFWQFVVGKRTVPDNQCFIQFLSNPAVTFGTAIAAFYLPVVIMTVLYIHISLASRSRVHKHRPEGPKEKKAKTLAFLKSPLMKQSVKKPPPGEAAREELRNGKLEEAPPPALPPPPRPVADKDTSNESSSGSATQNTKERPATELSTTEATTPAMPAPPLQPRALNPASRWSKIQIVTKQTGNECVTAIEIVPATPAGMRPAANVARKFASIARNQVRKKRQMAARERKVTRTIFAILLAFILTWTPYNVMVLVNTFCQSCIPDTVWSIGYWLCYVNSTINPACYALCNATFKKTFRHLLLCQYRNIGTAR
Kind of assay: M4 functional activation. Type of assay: cell-based.

A further assay concerns the target T4, M5 (Homo sapiens, UniProt P08912).
T4 sequence (P08912 1-532): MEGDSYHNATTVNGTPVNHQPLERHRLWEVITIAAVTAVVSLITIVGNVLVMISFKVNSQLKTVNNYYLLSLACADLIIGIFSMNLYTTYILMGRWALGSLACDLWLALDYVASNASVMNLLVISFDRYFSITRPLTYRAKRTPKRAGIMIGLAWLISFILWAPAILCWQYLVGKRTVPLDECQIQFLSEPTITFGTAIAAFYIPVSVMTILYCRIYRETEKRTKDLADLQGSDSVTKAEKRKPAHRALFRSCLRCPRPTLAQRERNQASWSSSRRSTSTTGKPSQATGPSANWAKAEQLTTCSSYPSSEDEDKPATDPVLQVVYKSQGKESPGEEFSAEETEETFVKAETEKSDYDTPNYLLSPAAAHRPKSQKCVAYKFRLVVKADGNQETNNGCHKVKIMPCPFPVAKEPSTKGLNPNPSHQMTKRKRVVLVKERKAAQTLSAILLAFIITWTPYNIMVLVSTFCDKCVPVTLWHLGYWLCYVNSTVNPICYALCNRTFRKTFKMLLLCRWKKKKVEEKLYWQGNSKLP
The experiment in a line: M5 functional activation. Type of assay: cell-based.

Assay [1] concerns the target T5, D2 (Homo sapiens, UniProt P14416). Kind of assay: D2 inhibition. It is filed as cell-based.
The target of assay [2] is T5, D2. As to conditions: cited from earlier work.

Where two headings read alike, the source gives them in different places.

T5 sequence (P14416 whole entry): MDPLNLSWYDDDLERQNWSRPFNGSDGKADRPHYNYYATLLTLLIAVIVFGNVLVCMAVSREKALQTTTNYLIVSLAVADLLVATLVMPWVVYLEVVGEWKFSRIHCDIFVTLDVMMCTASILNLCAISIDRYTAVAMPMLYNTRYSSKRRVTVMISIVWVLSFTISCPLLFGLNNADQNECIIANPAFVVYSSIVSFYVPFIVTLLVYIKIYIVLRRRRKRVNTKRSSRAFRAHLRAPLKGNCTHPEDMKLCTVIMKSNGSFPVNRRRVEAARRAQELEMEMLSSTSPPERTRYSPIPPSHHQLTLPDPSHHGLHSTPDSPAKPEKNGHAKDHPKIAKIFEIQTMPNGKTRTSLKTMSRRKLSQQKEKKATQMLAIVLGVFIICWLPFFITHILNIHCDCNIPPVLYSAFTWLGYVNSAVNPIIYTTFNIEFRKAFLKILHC
Sequence of M3 (P20309 whole entry): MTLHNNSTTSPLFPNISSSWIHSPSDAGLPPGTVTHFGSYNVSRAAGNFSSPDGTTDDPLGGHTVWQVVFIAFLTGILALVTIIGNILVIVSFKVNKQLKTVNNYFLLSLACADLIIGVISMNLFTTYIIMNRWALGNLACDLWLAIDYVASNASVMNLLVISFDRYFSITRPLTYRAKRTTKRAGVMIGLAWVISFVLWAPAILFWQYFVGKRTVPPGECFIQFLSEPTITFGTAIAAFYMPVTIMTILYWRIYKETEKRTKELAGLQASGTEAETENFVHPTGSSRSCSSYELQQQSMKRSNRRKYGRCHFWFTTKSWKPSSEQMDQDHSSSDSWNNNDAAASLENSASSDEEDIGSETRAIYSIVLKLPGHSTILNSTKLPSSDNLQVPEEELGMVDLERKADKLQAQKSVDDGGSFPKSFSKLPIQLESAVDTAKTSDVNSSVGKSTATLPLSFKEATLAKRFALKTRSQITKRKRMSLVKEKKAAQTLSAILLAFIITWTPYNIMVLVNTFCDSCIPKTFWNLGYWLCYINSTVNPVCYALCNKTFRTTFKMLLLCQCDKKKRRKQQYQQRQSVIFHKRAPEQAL

`O=C(Nc1cccc(SC(F)(F)F)c1)N1CCC(N2CCC(n3c(=O)[nH]c4ccccc43)CC2)CC1` [10i]: the “M1 activation, single point screen” value on M1 is listed as “activated M1”.

In general, EC50 refers to the midpoint of the concentration-response curve. As a reminder, the inhibition is the relative decrease from the control value, in per cent. For `O=c1[nH]c2ccccc2n1C1CCN(C2CCN(S(=O)(=O)c3ccccc3)CC2)CC1` [9c], the EC50 on M3, at M2, on M4 and on M5 was more than 30000 nM in each case. Further, at M1, the “M1 activation, single point screen” value was “activated M1”. Besides, the inhibition at 10 µM on D2 [1] (read-out: inhibition of D2) is approximately 10%.

Regarding `O=c1[nH]c2ccccc2n1C1CCN(C2CCN(Cc3ccccc3C(F)(F)F)CC2)CC1` [compound 2], on D2 [2], the D2 inhibitory activity entry was “no D2 inhibitory activity”.

`CCOC(=O)N1CCC(N2CCC(n3c(=O)[nH]c4ccccc43)CC2)CC1` [ethyl carbamate congener]: the “% CCh Max at M2” value on M2 is recorded as 80.6%. In addition, the concentration for a half-maximal effect (EC50) on M2 (read-out: M2 EC50) is 11.9 nM; on M4 (read-out: M4 EC50), 9.1 nM; at M5 (read-out: M5 EC50) it was 34.3 nM. For the same compound, the “% CCh Max at M4” value at M4 came out at 96.9%. For the same compound, the “% CCh Max at M5” value at M5 turned out to be 50.8%.

For `O=c1[nH]c2ccc(F)cc2n1C1CCN(C2CCN(S(=O)(=O)c3ccccc3)CC2)CC1` [14c], the “inhibition of D2” value against D2 [1] (at concentrations up to 10 μM) was “did not inhibit”.
